Test results taken from ChEMBL document CHEMBL1667805, “Synthesis of new C5-(1-substituted-1,2,3-triazol-4 or 5-yl)-2'-deoxyuridines and their antiviral evaluation” (Eur J Med Chem, 2011).
Activity calls are given as the source filed them. The rule behind the calls is not given here.

Tests used:
[1] = test system: Human immunodeficiency virus 1; assay: Antiviral activity against HIV1 3B infected in human […] cells assessed as virus-induced CEM giant cell formation after 4 days; type: functional, organism-based
[2] = test system: Human alphaherpesvirus 1; assay: microbe, parasite or virus in culture; conditions: Human alphaherpesvirus 1, KOS, HEL
[3] = test system: Coxsackievirus B4; type: functional, organism-based; conditions: HeLa
[4] = test system: Human alphaherpesvirus 3; assay: microbe, parasite or virus in culture; conditions: Human alphaherpesvirus 3, 07-1, HEL
[5] = test system: Influenza B virus; type: functional, organism-based; conditions: MDCK
[6] = test system: Punta Toro virus; type: functional, organism-based; conditions: Vero
[7] = test system: Sindbis virus; type: functional, organism-based; conditions: Vero
[8] = test system: Human betaherpesvirus 5; assay: microbe, parasite or virus in culture; conditions: Human betaherpesvirus 5, Davis, HEL
[9] = test system: Vesicular stomatitis virus; type: functional, organism-based; conditions: HeLa
[10] = test system: Human alphaherpesvirus 3; assay: microbe, parasite or virus in culture; conditions: Human alphaherpesvirus 3, strain Oka vaccine, HEL
[11] = test system: Vaccinia virus; assay: microbe, parasite or virus in culture; conditions: Orthopoxvirus vaccinia, HEL
[12] = test system: Mammalian orthoreovirus 1; type: functional, organism-based; conditions: Vero
[13] = in vitro; conditions: human, HEL cells
[14] = test system: HeLa; assay: cells; conditions: Homo sapiens, 96 h
[15] = test system: Human respirovirus 3; type: functional, organism-based; conditions: Vero
[16] = test system: L1210; assay: cells; conditions: Mus musculus, L1210, 48 h
[17] = test system: Influenza A virus; type: functional, organism-based; conditions: H1N1, MDCK
[18] = test system: Human alphaherpesvirus 2; assay: microbe, parasite or virus in culture; conditions: Human alphaherpesvirus 2, strain G, HEL
[19] = test system: Vesicular stomatitis virus; type: functional, organism-based; conditions: MDCK
[20] = test system: CCRF-CEM; assay: cells; conditions: Homo sapiens, 72 h
[21] = test system: Influenza A virus; type: functional, organism-based; conditions: H3N2, MDCK
[22] = test system: Human betaherpesvirus 5; assay: microbe, parasite or virus in culture; conditions: Human betaherpesvirus 5, AD169, HEL
[23] = test system: Human immunodeficiency virus 2; assay: Antiviral activity against HIV2 ROD infected in human […] cells assessed as virus-induced CEM giant cell formation after 4 days; type: functional, organism-based; conditions: ISOLATE ROD
[24] = test system: Human alphaherpesvirus 1; assay: microbe, parasite or virus in culture; conditions: Human alphaherpesvirus 1, KOS, HEL; remark: listed apart in the source

| Structure (SMILES) | EC50 [2] [µM] | EC50 [4] [µM] | EC50 [8] [µM] | EC50 [11] [µM] | CC50 at 72 h [13] [µM] | MCC at 72 h [13] [µM] | IC50 [14] [µM] | IC50 [16] [µM] | EC50 [18] [µM] | IC50 [20] [µM] | EC50 [24] [µM] | also measured |
| --- | --- | --- | --- | --- | --- | --- | --- | --- | --- | --- | --- | --- |
| O=c1[nH]c(=O)n([C@H]2C[C@H](O)[C@@H](CO)O2)cc1-c1cn(-c2c(F)cccc2F)nn1 | 36 | 6.1 | 18 | 38 | 1.5 | ≥ 10 | 0.51 | 2.9 | ≥ 50 | 1.5 | 31 | inhibition [1]: inactive; inhibition [3]: inactive; inhibition [5]: inactive; inhibition [6]: inactive; inhibition [7]: inactive; inhibition [9]: inactive; EC50 [10]: 3.1 µM; inhibition [12]: inactive; inhibition [15]: inactive; inhibition [17]: inactive; inhibition [19]: inactive; inhibition [21]: inactive; EC50 [22]: 29 µM; inhibition [23]: inactive |
| O=c1[nH]cc(F)c(=O)[nH]1 [FLUOROURACIL] |  |  |  |  |  |  | 0.57 | 0.56 |  | 14 |  |  |
| CC(C)c1ccc(-n2nncc2-c2cn([C@H]3C[C@H](O)[C@@H](CO)O3)c(=O)[nH]c2=O)cc1 | > 100 |  |  | > 100 |  | > 100 | > 200 | > 200 | > 100 | > 200 | > 100 |  |
| Nc1ccn(C[C@@H](CO)OCP(=O)(O)O)c(=O)n1 [CIDOFOVIR] | 0.8 |  | 0.4 |  | > 250 | > 250 |  |  | 1.4 |  | 0.8 |  |
| O=c1[nH]c(=O)n([C@H]2C[C@H](O)[C@@H](CO)O2)cc1-c1cnnn1-c1ccc(Oc2ccccc2)cc1 | > 100 |  |  | > 100 |  | > 100 | 42 | 134 | > 100 | 107 | > 100 |  |
| O=c1[nH]c(=O)n([C@H]2C[C@H](O)[C@@H](CO)O2)cc1/C=C/Br [BRIVUDINE] |  | 54.4 |  |  | > 250 | > 250 |  |  | 180 |  | 6 |  |
| Nc1nc2c(ncn2COC(CO)CO)c(=O)[nH]1 [GANCICLOVIR] |  |  |  | > 100 | > 250 | > 250 |  |  | 0.04 |  | 0.1 |  |
| Nc1nc2c(ncn2COCCO)c(=O)[nH]1 [ACYCLOVIR] |  | 16.5 |  | > 250 | > 130 | > 50 |  |  |  |  | 10 |  |
| O=c1[nH]c(=O)n([C@H]2C[C@H](O)[C@@H](CO)O2)cc1-c1cnnn1-c1c(F)cccc1F | > 100 |  |  | > 100 |  | > 100 | 5 | 10 | > 100 | 12 | > 100 |  |
| O=c1[nH]c(=O)n([C@H]2C[C@H](O)[C@@H](CO)O2)cc1-c1cn(-c2cc(F)cc(F)c2)nn1 | > 220 | > 50 | > 50 | > 220 | 36 | 220 |  |  | > 220 |  | > 220 | inhibition [1]: inactive; inhibition [3]: inactive; inhibition [5]: inactive; inhibition [6]: inactive; inhibition [7]: inactive; inhibition [9]: inactive; EC50 [10]: > 50 µM; inhibition [12]: inactive; inhibition [15]: inactive; inhibition [17]: inactive; inhibition [19]: inactive; inhibition [21]: inactive; EC50 [22]: > 50 µM; inhibition [23]: inactive |
| NC(=O)c1ncn([C@@H]2O[C@H](CO)[C@@H](O)[C@H]2O)n1 [RIBAVIRIN] | > 250 |  | > 100 | > 250 | > 250 | > 250 |  |  | > 250 |  | > 250 | EC50 [22]: > 100 µM |
| O=c1[nH]c(=O)n([C@H]2C[C@H](O)[C@@H](CO)O2)cc1-c1cnnn1-c1ccc(Br)cc1 | > 100 |  |  | > 100 |  | > 100 | 8 | 61 | > 100 | 47 | > 100 |  |
